Positions of bridges follow the written chain, without caps; N, C: chain ends. Non-standard residues stand in square brackets, D forms with d. Residues, ends and D or L forms follow the SMILES beside them. Tic = O=C(O)[C@@H]1Cc2ccccc2CN1
Assays:
HIV-1 NL4-3 DTV = conditions: read-out: IC50 DTV, P4-CCR5 cells, peptide 2 h before infection, readout three days after infection
Excerpt: (§1) These cells contain the β-galactosidase reporter gene under the control of the HIV-1 promoter. Thus, activation of the β-galactosidase reporter gene allows to measure the efficiency of HIV-1 infection and thus to quantitate the potency of HIV-1 inhibitors (Detheux M. et al., 2000; Journal of Experimental Medicine 192, 1501-1508; Münch et al., 2002; Antimicrobial Agents and Chemotherapy 46, 982-990).
(§2) To perform a typical infection assay, P4-CCR5 cells (Charneau et al., 1994; Journal of Molecular Biology 241, 651-662; Charneau et al., Virology. 1994 205, 247-53) were kept in RPMI 1640 medium supplemented with 10 volume % FCS. This cell line coexpresses CD4 and both HIV-1 coreceptors CCR5 and CXCR4 and contains the β-galactosidase gene under the control of the HIV-1 promoter. Virus stocks were generated by the calcium coprecipitation method as described (Detheux et al., J Exp Med. 192:1501-8; 2000), and the p24 antigen levels were quantitated with an HIV p24 ELISA kit obtained through the NIH AIDS Reagent Program. Cells were seeded in flat-bottomed 96-well dishes, cultured overnight, and incubated with the different doses of peptide for 2 h before infection with virus containing 1 ng of p24 antigen in a total volume of […] of medium. After overnight incubation, cells were washed twice and cultivated in fresh culture medium without inhibitory peptide. Three days after infection the cells were lysed, and infectivity was quantitated using the Galacto-Light Plus™ chemiluminescence reporter assay kit (Tropix, Bedford, Mass.) as recommended by the manufacturer. All infections were performed in quintuplicate.

X4-tropic HIV-1 NL4-3 = conditions: read-out: IC50 NL4-3; P4-CCR5 cells, HIV-1 NL4-3, peptide 2 h before infection, readout three days after infection
Excerpt: as §1, §2

Molecule | IC50 (HIV-1 NL4-3 DTV) | IC50 (X4-tropic HIV-1 NL4-3)
CC[C@H](C)[C@H](NC(=O)[C@H](C)NC(=O)[C@H](CCC(=O)O)NC(=O)[C@@H](N)CC(C)C)C(=O)N1CCC[C@H]1C(=O)N[C@H]1CSSC[C@@H](C(=O)N[C@H](C(=O)NCC(=O)N[C@@H](Cc2ccccc2)C(=O)NCC(=O)N[C@@H](CCCCN)C(=O)N2CCC[C@H]2C(=O)N[C@@H](Cc2ccccc2)C(=O)N[C@H](C(=O)N[C@@H](Cc2ccccc2)C(=O)O)C(C)C)C(C)C)NC(=O)[C@@H]2CCCN2C(=O)[C@@H]2CCCN2C(=O)[C@H]([C@@H](C)CC)NC(=O)[C@H](CO)NC1=O [VIR-162] (H-LEAIPCSIPPCVGFGKPFVF-OH; disulfide 6-11) | 950 nM | 660 nM
CC[C@H](C)[C@H](NC(=O)[C@H](C)NC(=O)[C@H](CCC(=O)O)NC(=O)[C@@H](N)CC(C)C)C(=O)N1CCC[C@H]1C(=O)N[C@H]1CSSC[C@@H](C(=O)N[C@H](C(=O)N[C@@H](CC(C)C)C(=O)N[C@@H](Cc2ccccc2)C(=O)N[C@@H](CC(N)=O)C(=O)N[C@@H](CCCCN)C(=O)N2CCC[C@H]2C(=O)N[C@@H](Cc2ccccc2)C(=O)N[C@H](C(=O)N[C@@H](Cc2ccccc2)C(=O)O)C(C)C)C(C)C)NC(=O)[C@@H]2CCCN2C(=O)[C@@H]2CCCN2C(=O)[C@H]([C@@H](C)CC)NC(=O)[C@H](CO)NC1=O [VIR-163] (H-LEAIPCSIPPCVLFNKPFVF-OH; disulfide 6-11) | 290 nM | 760 nM
CC[C@H](C)[C@H](NC(=O)[C@@H]1CCCN1C(=O)[C@@H](NC(=O)[C@H](CC(=O)O)NC(=O)[C@H](CCC(=O)O)NC(=O)[C@@H](N)CC(C)C)[C@@H](C)CC)C(=O)NCC(=O)N[C@H](C(=O)N1CCC[C@H]1C(=O)N1CCC[C@@H]1C(=O)N[C@@H](CCC(=O)O)C(=O)N[C@H](C(=O)N1Cc2ccccc2C[C@H]1C(=O)N[C@@H](Cc1ccccc1)C(=O)N[C@@H](CC(N)=O)C(=O)N[C@@H](CCCCN)C(=O)N1CCC[C@H]1C(=O)N[C@@H](Cc1ccccc1)C(=O)N[C@H](C(=O)N[C@@H](Cc1ccccc1)C(=O)O)C(C)C)C(C)C)[C@@H](C)CC [VIR-487, LEDIPIGIPpEV(L-Tic)FNKPFVF] (H-LEDIPIGIP[dP]EV[Tic]FNKPFVF-OH) |  | 256 nM
CC[C@H](C)[C@H](NC(=O)[C@@H]1CCCN1C(=O)[C@@H](NC(=O)[C@H](CC(=O)O)NC(=O)[C@H](CCC(=O)O)NC(=O)[C@@H](N)CC(C)C)[C@@H](C)CC)C(=O)NCC(=O)N[C@H](C(=O)N1CCC[C@H]1C(=O)N1CCC[C@@H]1C(=O)N[C@@H](CCC(=O)O)C(=O)N[C@H](C(=O)N[C@@H](C)C(=O)N[C@@H](Cc1ccccc1)C(=O)N[C@@H](CC(N)=O)C(=O)N[C@@H](CCCCN)C(=O)N1Cc2ccccc2C[C@H]1C(=O)N[C@@H](Cc1ccccc1)C(=O)N[C@H](C(=O)N[C@@H](Cc1ccccc1)C(=O)O)C(C)C)C(C)C)[C@@H](C)CC [VIR-488, LEDIPIGIPpEVAFNK(L-Tic)FVF] (H-LEDIPIGIP[dP]EVAFNK[Tic]FVF-OH) |  | 415 nM
CC[C@H](C)[C@H](NC(=O)[C@H](C)NC(=O)[C@H](CCC(=O)O)NC(=O)[C@@H](N)CC(C)C)C(=O)N1CCC[C@H]1C(=O)N[C@H]1CSSC[C@@H](C(=O)N[C@@H](CC(C)C)C(=O)N[C@@H](Cc2ccccc2)C(=O)NCC(=O)N[C@@H](CCCCN)C(=O)N2CCC[C@H]2C(=O)N[C@@H](Cc2ccccc2)C(=O)N[C@H](C(=O)N[C@@H](Cc2ccccc2)C(=O)O)C(C)C)NC(=O)[C@H](CCC(=O)O)NC(=O)[C@@H]2CCCN2C(=O)[C@@H]2CCCN2C(=O)[C@H]([C@@H](C)CC)NC(=O)[C@H](CO)NC1=O [VIR-570] (H-LEAIPCSIPPECLFGKPFVF-OH; disulfide 6-12) |  | 231 nM
H-LEAIPISIPPELAFAKPFVF-OH [VIR-286] |  | 559 nM
H-LEAIPISIPPEVFFGKPFVF-OH [VIR-284] |  | 281 nM
LEAIPMKIPPEFLFGKPFVF [VIR-590] |  | 343 nM

Source: patent publication US7655629B2, “Peptides and their use for the treatment of HIV infections” (priority 2002, dated 2010)
